Assay [1] addresses T1, δ opioid receptor (Cavia porcellus, UniProt A0A286XTF2).
T1 construct: determined in guinea pig brain cells; from tissue; host or cells: guinea pig brain
Nature of the assay: biochemical. The class given is binding, guinea pig.

Assay [2] addresses T2, human μ opioid receptor (Homo sapiens, UniProt P35372).
T2 construct: expressed in transfected cells; host or cells: Chinese hamster ovary (CHO) cells
Nature of the assay: biochemical. It counts as binding.

The target in assay [3] is T3, κ opioid receptor (Cavia porcellus, UniProt P41144).
T3 construct: determined in guinea pig brain cells; from tissue; host or cells: guinea pig brain
T3 sequence (P41144 whole entry): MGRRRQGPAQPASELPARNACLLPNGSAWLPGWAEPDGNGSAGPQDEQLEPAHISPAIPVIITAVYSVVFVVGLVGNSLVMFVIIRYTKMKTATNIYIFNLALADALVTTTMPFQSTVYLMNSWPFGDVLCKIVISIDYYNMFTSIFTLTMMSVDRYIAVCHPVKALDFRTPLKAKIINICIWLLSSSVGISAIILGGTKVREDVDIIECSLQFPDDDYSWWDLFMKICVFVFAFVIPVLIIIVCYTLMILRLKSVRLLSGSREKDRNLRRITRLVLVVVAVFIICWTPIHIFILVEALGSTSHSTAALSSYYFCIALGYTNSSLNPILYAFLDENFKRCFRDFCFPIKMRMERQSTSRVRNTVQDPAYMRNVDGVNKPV
Nature of the assay: biochemical. The class given is binding, guinea pig.

The target of assay [4] is T4, human δ opioid receptor (Homo sapiens, UniProt P41143).
T4 construct: expressed in transfected cells; host or cells: Chinese hamster ovary (CHO) cells
T4 sequence (P41143 whole entry): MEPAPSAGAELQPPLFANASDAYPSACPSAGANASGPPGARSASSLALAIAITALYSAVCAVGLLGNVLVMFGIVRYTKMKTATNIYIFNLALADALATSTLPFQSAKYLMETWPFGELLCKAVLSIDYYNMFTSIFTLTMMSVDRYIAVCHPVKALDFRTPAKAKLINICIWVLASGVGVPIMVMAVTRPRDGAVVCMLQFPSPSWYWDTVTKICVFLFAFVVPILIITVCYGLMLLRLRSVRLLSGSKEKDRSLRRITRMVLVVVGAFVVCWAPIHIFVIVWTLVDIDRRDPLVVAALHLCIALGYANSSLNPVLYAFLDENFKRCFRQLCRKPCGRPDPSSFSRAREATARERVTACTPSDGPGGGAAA
The assay is described as follows: binding to cloned human receptor in CHO cell membranes, [3H]Naltrindole. How it is done:
The affinities of the compounds of the invention were determined in guinea pig brain cells by the method described in Wentland et al. Biorgan. Med. Chem. Lett. 9. […] CHO cell membranes, expressing the human μ, δ, or κ opioid receptor, were incubated with 12 different concentrations of the compounds in the presence of receptor-specific radioligands at 25° C., in a final volume of 1 ml of 50 mM Tris-HCl, pH 7.5. Nonspecific binding was determined using 1 μM naloxone. Data are the mean value ±S.E.M. from three experiments, performed in triplicate.

For assay [5], the target named is T5, human κ opioid receptor (Homo sapiens, UniProt P41145).
T5 construct: expressed in transfected cells; host or cells: Chinese hamster ovary (CHO) cells
T5 sequence (P41145 whole entry): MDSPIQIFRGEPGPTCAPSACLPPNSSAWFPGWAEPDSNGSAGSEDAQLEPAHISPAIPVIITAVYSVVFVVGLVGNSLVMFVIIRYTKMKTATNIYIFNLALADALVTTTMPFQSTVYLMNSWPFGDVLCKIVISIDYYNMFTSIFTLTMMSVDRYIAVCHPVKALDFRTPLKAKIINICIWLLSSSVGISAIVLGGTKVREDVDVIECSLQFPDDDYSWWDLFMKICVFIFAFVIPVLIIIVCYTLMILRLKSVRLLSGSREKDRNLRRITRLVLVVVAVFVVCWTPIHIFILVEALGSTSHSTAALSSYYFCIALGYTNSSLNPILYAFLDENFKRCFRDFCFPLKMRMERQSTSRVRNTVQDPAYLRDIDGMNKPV
Nature of the assay: biochemical. The class given is binding.

For assay [6], the system named is mice. Nature of the assay: mouse acetic acid writhing test (antinociceptive activity). It counts as in vivo. Particulars: for duration of action (antinociception, mouse writhing test): 1.0 mg/kg i.p.; for ED50 in the mouse acetic acid writhing test: administered i.c.v.
For assay [7], the target named is μ opioid receptor (Cavia porcellus, UniProt A0ACM8Q262). The class given is binding, guinea pig.
Chain of μ opioid receptor (A0ACM8Q262 1-400): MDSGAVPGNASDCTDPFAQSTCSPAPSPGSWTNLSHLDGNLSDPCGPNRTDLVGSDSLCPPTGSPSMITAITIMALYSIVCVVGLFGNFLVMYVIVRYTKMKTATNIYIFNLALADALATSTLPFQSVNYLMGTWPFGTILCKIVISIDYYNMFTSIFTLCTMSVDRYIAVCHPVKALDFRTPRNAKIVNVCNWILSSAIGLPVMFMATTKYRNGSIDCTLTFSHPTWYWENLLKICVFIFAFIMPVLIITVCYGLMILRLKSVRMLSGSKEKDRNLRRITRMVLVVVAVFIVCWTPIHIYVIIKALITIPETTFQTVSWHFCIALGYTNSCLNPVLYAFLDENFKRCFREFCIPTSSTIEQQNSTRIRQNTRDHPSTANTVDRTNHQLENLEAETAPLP

Several values for one entry are separate records, joined by “and”; a condition that tells them apart may be missing. Equal values may be shown once. Read-outs that look alike come from different tables or passages of the source.

T2 sequence (P35372 whole entry): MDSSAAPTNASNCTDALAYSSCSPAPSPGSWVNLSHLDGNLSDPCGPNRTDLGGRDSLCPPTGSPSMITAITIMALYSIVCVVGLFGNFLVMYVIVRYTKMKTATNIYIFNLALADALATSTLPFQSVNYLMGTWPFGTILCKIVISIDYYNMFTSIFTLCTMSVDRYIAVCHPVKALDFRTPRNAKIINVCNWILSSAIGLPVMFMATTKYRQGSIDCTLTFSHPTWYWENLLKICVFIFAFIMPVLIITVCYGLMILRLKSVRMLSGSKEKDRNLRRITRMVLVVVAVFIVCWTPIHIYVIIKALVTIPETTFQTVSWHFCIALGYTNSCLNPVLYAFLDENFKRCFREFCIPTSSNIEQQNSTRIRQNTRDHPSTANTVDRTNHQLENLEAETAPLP
T1 sequence (A0A286XTF2 1-366): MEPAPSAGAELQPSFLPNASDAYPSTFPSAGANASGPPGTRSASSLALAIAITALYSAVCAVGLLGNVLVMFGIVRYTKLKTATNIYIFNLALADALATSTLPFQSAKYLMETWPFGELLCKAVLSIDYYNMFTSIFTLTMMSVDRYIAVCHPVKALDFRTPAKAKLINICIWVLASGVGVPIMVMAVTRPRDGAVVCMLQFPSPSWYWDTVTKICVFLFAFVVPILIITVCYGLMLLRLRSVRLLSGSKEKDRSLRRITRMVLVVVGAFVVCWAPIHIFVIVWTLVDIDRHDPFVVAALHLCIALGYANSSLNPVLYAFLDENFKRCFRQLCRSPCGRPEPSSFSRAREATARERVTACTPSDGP

As to `CC1C2C(=O)c3ccc(O)cc3[C@@]1(C)CCN2CC1CC1` (mixture of isomers) [(±)-ketocyclazocine, Ketocyclazocine, reference compound], the Ki in assay [1] ([3H] Naltrindole (δ)) was found to be 20 ± 2.7 nM; in assay [2], 1.7 ± 0.21 nM; in assay [3] ([3H] U69,593 (κ)), 1 ± 0.24 nM; in assay [4], 130 ± 14 nM; in assay [5], 1 ± 0.019 nM.

Turning to `C[C@H]1C2Cc3ccc(C(N)=O)cc3[C@@]1(C)CCN2CC1CC1` (racemic) [Example 4, (±)-3-(Cyclopropylmethyl)-1,2,3,4,5,6-hexahydro-cis-6,11-dimethyl-2,6-methano-3-benzazocin-8-carboxamide], in assay [6], the “duration of action (antinociception, mouse writhing test)” value turned out to be 15 h and the “ED50 in the mouse acetic acid writhing test” value came to 0.21 nmol. Besides, in assay [1] (Ki [3H] Naltrindole (δ)), the Ki is 8.3 nM and 4.9 nM.

`C[C@H]1[C@H]2Cc3ccc(NS(C)(=O)=O)cc3[C@]1(C)CCN2CC1CC1` (racemic) [Example 21]: the figures for the Ki in assay [1] (Ki [3H] Naltrindole (δ)) and in assay [3] (Ki [3H] U69,593 (κ)) were 780 ± 170 nM and 21 ± 1.5 nM, respectively.

Consider `CC1C2Cc3ccc(NC(N)=O)cc3C1(C)CCN2CC1CC1` (racemic) [Example 36], for which the Ki in assay [1] (read-out: Ki [3H] Naltrindole (δ)) came to 90 ± 12 nM; in assay [7] (read-out: Ki [3H] DAMGO (μ)), 20 ± 0.66 nM; in assay [3] (read-out: Ki [3H] U69,593 (κ)) it was 15 ± 1.4 nM.

With `CC1C2Cc3ccc(NC(N)=S)cc3C1(C)CCN2CC1CC1` (racemic) [Example 37], the Ki in assay [2] (read-out: Ki [3H] DAMGO (μ)) was found to be 10 ± 1.7 nM; in assay [4] (read-out: Ki [3H] Naltrindole (δ), Table 1, footnote a: chinese hamster ovary rather than guinea pig brain) it was 440 ± 72 nM; in assay [5] (read-out: Ki [3H] U69,593 (κ)), 4 ± 0.54 nM.

Consider `C[C@H]1[C@H]2C(=O)c3ccc(C(N)=O)cc3[C@]1(C)CCN2CC1CC1` (relative stereo) [Example 23], for which the Ki was 20 ± 2.3 nM in assay [1] ([3H] Naltrindole (δ)) and 1.8 ± 0.1 nM in assay [3] ([3H] U69,593 (κ)).

For the compound `CC1C2Cc3ccc(NC=O)cc3C1(C)CCN2CC1CC1` (single isomer, unassigned) [Example 19a], the Ki came out at 9.8 ± 0.28 nM in assay [1] (Ki [3H] Naltrindole (δ)) and 0.49 ± 0.012 nM in assay [3] (Ki [3H] U69,593 (κ)).

As to `CC1C2Cc3ccc(NC=O)cc3C1(C)CCN2CC1CC1` (single isomer, unassigned) [Example 19b], the Ki in assay [1] (Ki [3H] Naltrindole (δ)) is more than 10000 nM; in assay [3] (Ki [3H] U69,593 (κ)), 900 ± 8.7 nM.

For `CC1C2Cc3ccc(O)cc3C1(C)CCN2CC1CCCO1` (single isomer, unassigned) [Example 25, reference compound], the Ki in assay [1] ([3H] Naltrindole (δ)) is 3.6 ± 0.4 nM; in assay [3] ([3H] U69,593 (κ)) it was 0.09 ± 0.01 nM.

In the case of `CC1C2Cc3ccc(C(N)=O)cc3C1(C)CCN2CC1CCCO1` (single isomer, unassigned) [Example 26], the Ki in assay [1] ([3H] Naltrindole (δ)) stood at 2 ± 0.15 nM; in assay [3] ([3H] U69,593 (κ)) it was 0.089 ± 0.004 nM.

Consider `CC1C2Cc3ccc(O)cc3C1(C)CCN2CC1CCCO1` (single isomer, unassigned) [Example 27, reference compound], for which the Ki came out at 67 ± 4.3 nM in assay [1] ([3H] Naltrindole (δ)) and 1.5 ± 0.07 nM in assay [3] ([3H] U69,593 (κ)).

On to `CC1C2Cc3ccc(C(N)=O)cc3C1(C)CCN2CC1CCCO1` (single isomer, unassigned) [Example 28], for which the Ki worked out at 34 ± 0.1 nM in assay [1] ([3H] Naltrindole (δ)) and 2.8 ± 0.24 nM in assay [3] ([3H] U69,593 (κ)).

On to `C[C@H]1[C@H]2Cc3ccc(O)cc3[C@]1(C)CCN2CC1CC1` [(+)-Cyclazocine, Cyclazocine, reference compound], for which the Ki in assay [1] (read-out: [3H] Naltrindole (δ)) was 1100 ± 63 nM; in assay [3] (read-out: [3H]U69,593 (κ)) it was 76 ± 8.2 nM.

Turning to `C[C@H]1[C@H]2Cc3ccc(O)cc3[C@]1(C)CCN2CC1CC1` [(−)-Cyclazocine, Cyclazocine, reference compound], the results for the Ki in assay [1] (read-out: [3H] Naltrindole (δ)) and in assay [3] (read-out: [3H]U69,593 (κ)) were 0.58 ± 0.06 nM and 0.052 ± 0.009 nM, respectively.

`CNC(=O)c1ccc2c(c1)C1(C)CCN(CC3CC3)C(C2)C1C` (stereo not shown) [Example 8]: the Ki in assay [1] (Ki [3H] Naltrindole (δ)) is 63 ± 4.1 nM; in assay [3] (Ki [3H] U69,593 (κ)), 2.6 ± 0.19 nM.

Consider `CC1C2Cc3ccc(C(=O)NCc4ccccc4)cc3C1(C)CCN2CC1CC1` (stereo not shown) [Example 9], for which the Ki in assay [1] (Ki [3H] Naltrindole (δ)) turned out to be 140 ± 18 nM; in assay [3] (Ki [3H] U69,593 (κ)) it was 78 ± 7.6 nM.

Take `CC1C2Cc3ccc(C(=O)NCCN(C)C)cc3C1(C)CCN2CC1CC1` (stereo not shown) [Example 11]: the Ki in assay [1] (Ki [3H] Naltrindole (δ)) is 350 ± 51 nM; in assay [3] (Ki [3H] U69,593 (κ)), 44 ± 11 nM.

In the case of `CC1C2Cc3ccc(C4=NCCN4)cc3C1(C)CCN2CC1CC1` (stereo not shown) [Example 13], the Ki was 55 ± 5.1 nM in assay [1] (Ki [3H] Naltrindole (δ)) and 11 ± 0.69 nM in assay [3] (Ki [3H] U69,593 (κ)).

Take `CC1C2Cc3ccc(C(=O)c4ccccc4)cc3C1(C)CCN2CC1CC1` (stereo not shown) [Example 17]: the Ki in assay [1] (Ki [3H] Naltrindole (δ)) turned out to be 490 ± 43 nM; in assay [3] (Ki [3H] U69,593 (κ)), 19 ± 2.6 nM.

`CC1C2Cc3ccc(C(=NO)c4ccccc4)cc3C1(C)CCN2CC1CC1` (stereo not shown) [Example 18]: the Ki was determined as 180 ± 15 nM in assay [1] (Ki [3H] Naltrindole (δ)) and 7.2 ± 0.4 nM in assay [3] (Ki [3H] U69,593 (κ)).

For the compound `CC1C2Cc3ccc(NC=S)cc3C1(C)CCN2CC1CC1` (stereo not shown) [Example 20], the Ki in assay [1] (Ki [3H] Naltrindole (δ)) amounted to 16 ± 0.3 nM; in assay [3] (Ki [3H] U69,593 (κ)) it was 0.63 ± 0.15 nM.

With `CC1C2C(=O)c3ccc(C#N)cc3C1(C)CCN2CC1CC1` (stereo not shown) [Example 22], the Ki was determined as 3400 ± 410 nM in assay [1] ([3H] Naltrindole (δ)) and 59 ± 0.77 nM in assay [3] ([3H] U69,593 (κ)).

Turning to `CCC12CCN(CC3CC3)C(C(=O)c3ccc(C(N)=O)cc31)C2C` (stereo not shown) [Example 24], the Ki in assay [1] (read-out: [3H] Naltrindole (δ)) was 9.8 ± 0.5 nM; in assay [3] (read-out: [3H] U69,593 (κ)) it was 0.7 ± 0.08 nM.

Regarding `C[C@H]1[C@H]2Cc3ccc(CN)cc3[C@]1(C)CCN2C[C@@H]1CCCO1` [Example 29], the Ki in assay [1] ([3H] Naltrindole (δ)) was found to be 300 ± 27 nM; in assay [3] ([3H] U69,593 (κ)), 18 ± 1.9 nM.

Turning to `NC(=O)c1ccc2c3c1OC1C(=O)CCC4(O)C(C2)N(CC2CC2)CCC314` (stereo not shown) [Example 32], the Ki in assay [1] (read-out: [3H] Naltrindole (δ)) worked out at 110 ± 8.1 nM; in assay [7] (read-out: [3H] DAMGO (μ)), 1.9 ± 0.21 nM; in assay [3] (read-out: [3H] U69,593 (κ)) it was 22 ± 0.85 nM.

In the case of `CCOC(=O)c1ccc2c3c1OC1C(=O)CCC4(O)C(C2)N(CC2CC2)CCC314` (stereo not shown) [Example 33], the Ki in assay [1] (read-out: [3H] Naltrindole (δ)) is 970 ± 155 nM; in assay [7] (read-out: [3H] DAMGO (μ)) it was 24 ± 1.7 nM; in assay [3] (read-out: [3H] U69,593 (κ)), 16 ± 0.7 nM.

`CC1C2Cc3ccc(CC#N)cc3C1(C)CCN2CC1CC1` (stereo not shown) [Example 38]: the Ki in assay [2] is 3.3 ± 1.5 nM; in assay [4], 2000 ± 685 nM; in assay [5] it was 2.9 ± 0.36 nM.

With `CC1C2Cc3ccc(C=NO)cc3C1(C)CCN2CC1CC1` (stereo not shown) [Example 39], the values for the Ki in assay [2], in assay [4] and in assay [5] were 18 ± 1.8 nM, 140 ± 15 nM and 0.73 ± 0.03 nM, respectively.

For the compound `CCC12CCN(CC3CC3)C(C(=O)c3ccc(NC=O)cc31)C2C` (stereo not shown) [Example 40], the Ki in assay [1] (read-out: [3H] Naltrindole (δ)) amounted to 52 ± 3.4 nM; in assay [3] (read-out: [3H] U69,593 (κ)) it was 1.2 ± 0.11 nM.

Turning to `N#Cc1ccc2c(c1O)[C@]13CCN(CC4CCC4)[C@H](C2)[C@]1(O)CCC(=O)C3` [Example 43], the Ki in assay [2] was 0.35 ± 0.092 nM; in assay [4] it was 82 ± 24 nM; in assay [5], 2.6 ± 0.21 nM.

As to `Oc1ccc2c(c1)C13CCCCC1(O)C(C2)N(CC1CCC1)CC3` (stereo not shown) [butorphanol, Butorphanol, reference compound], the Ki in assay [4] is 12 ± 3.8 nM; in assay [5], 0.22 ± 0.023 nM.

“Cyclazocine [(±)-Cyclazocine, reference compound]”: in assay [6], the “duration of action (antinociception, mouse writhing test)” value is “ca. 2 hr” and the “ED50 in the mouse acetic acid writhing test” value is given as 2.9 nmol. Moreover, the Ki in assay [7] (read-out: [3H] DAMGO (μ)) was determined as 0.32 ± 0.02 nM.

The values are drawn from US9932349B2 (priority 2000, dated 2018).
